# Experimental data from EP2902035B1, “Cell-permeable peptide inhibitors of the JNK signal transduction pathway for use in the treatment of inflammatory eye diseases” (Xigen Inflammation Ltd., priority 2010, dated 2012).
# Tests used:
# Assay type in all cases: in vivo, Lewis rats
# iNOS positive cells = assay: Immunohistochemistry of iNOS on eye sections in EIU; details: IV or IVT injection compared to control eyes, 24h
# Protocol: A second set of experiment was designed to evaluate the anti-inflammatory effect of the JNK-inhibitor (poly-)peptide of SEQ ID NO: 11 at the cellular and tissue level as well as the biodistribution of this molecule 24 hours after administration. Rats were randomized into 11 experimental groups. 6 groups of rats with uveitis: untreated uveitic rats, rats injected intravenously with NaCl or the JNK-inhibitor (poly-)peptide of SEQ ID NO: 11 and rats injected intravitreously with the vehicle, the JNK-inhibitor (poly-)peptide of SEQ ID NO: 11 or dexamethasone. The 5 additional groups without uveitis were: untreated healthy rats, rats treated by NaCl IV or the JNK-inhibitor (poly-)peptide of SEQ ID NO: 11 IV and rats injected IVT with NaCl or the JNK-inhibitor (poly-)peptide of SEQ ID NO: 11. Three eyes from separate rats were collected per group and used for immunohistochemistry. To characterize the cellular infiltrate, sections were double-stained with ED1 and iNOS. […] After staining nuclei with DAPI (Sigma-Aldrich, Saint-Quentin Fallavier, France), sections were mounted in PBS/Glycerol (1/1) and observed by fluorescence photomicroscopy (FXA, Microphot, Nikon, Melville, USA). […] ED1 positive cells and polymorphonuclear cells, identified by the shape of their nuclei stained with DAPI, were quantified on histological sections. […] Results were expressed as mean ± standard error of the mean (SEM).
# [1] = Ocular biodistribution by immunohistochemistry against SEQ ID NO: 11
# Protocol: (§1) For immunohistochemistry, eyeballs were collected and fixed for 1h at room temperature in phosphate buffered saline (PBS) containing 4% paraformaldehyde before being rinsed overnight in PBS. The next day, samples were embedded and frozen in optimal cutting-temperature (OCT) compound (Tissue-Tek®, Sakura Finetek, Zoeterwoude, Netherland) and stored at -80°C. Frozen antero-posterior sections of eyes (10 µm thick) were performed at the optic nerve level using a cryostat (Leica CM 3050S, Rueil-Malmaison, France) and mounted on super-frost slides for immunohistochemical analysis.
# (§2) A second set of experiment was designed to evaluate the anti-inflammatory effect of the JNK-inhibitor (poly-)peptide of SEQ ID NO: 11 at the cellular and tissue level as well as the biodistribution of this molecule 24 hours after administration. Rats were randomized into 11 experimental groups. 6 groups of rats with uveitis: untreated uveitic rats, rats injected intravenously with NaCl or the JNK-inhibitor (poly-)peptide of SEQ ID NO: 11 and rats injected intravitreously with the vehicle, the JNK-inhibitor (poly-)peptide of SEQ ID NO: 11 or dexamethasone. The 5 additional groups without uveitis were: untreated healthy rats, rats treated by NaCl IV or the JNK-inhibitor (poly-)peptide of SEQ ID NO: 11 IV and rats injected IVT with NaCl or the JNK-inhibitor (poly-)peptide of SEQ ID NO: 11. Three eyes from separate rats were collected per group and used for immunohistochemistry.
# Immunostaining of the JNK-inhibitor (poly-)peptide of SEQ ID NO: 11 was performed on healthy and uveitic eyes to study its ocular biodistribution after systemic or local administration. Briefly, sections were permeabilized as described above before being sequentially incubated with an anti- SEQ ID NO: 11 purified rabbit IgG and a secondary Alexa 594 (red)-conjugated goat anti-rabbit IgG (Invitrogen, Cergy Pontoise, France) diluted 1:100 and 1:250 in PBS respectively. Immunostaining of untreated healthy and uveitic eyes were used as negative controls. Nuclei were stained with DAPI before mounting and observation.
# [2] = system: polymorphonuclear cells (PMN); assay: Quantification of infiltrating polymorphonuclear cells on histological sections in EIU; details: at 24 hours, mean ± SEM
# Protocol: as §1, §2
# To characterize the cellular infiltrate, sections were double-stained with ED1 and iNOS. […] After staining nuclei with DAPI (Sigma-Aldrich, Saint-Quentin Fallavier, France), sections were mounted in PBS/Glycerol (1/1) and observed by fluorescence photomicroscopy (FXA, Microphot, Nikon, Melville, USA). […] ED1 positive cells and polymorphonuclear cells, identified by the shape of their nuclei stained with DAPI, were quantified on histological sections. […] Results were expressed as mean ± standard error of the mean (SEM).
structure (smiles),measurement,setting,value
CC(C)C[C@@H](NC(=O)[C@@H](Cc1ccccc1)NC(=O)[C@H]1CCCN1C(=O)[C@@H](CCC(N)=O)NC(=O)[C@H](NC(=O)[C@H]1CCCN1C(=O)[C@@H](CCCNC(=N)N)NC(=O)[C@@H](CO)NC(=O)[C@@H](CCC(N)=O)NC(=O)[C@H](N)CC(=O)O)C(C)C)C(=O)N[C@H](CC(N)=O)C(=O)N[C@H](CC(C)C)C(=O)N[C@@H](C(=O)N[C@@H](C(=O)N1CCC[C@@H]1C(=O)N[C@H](CCCNC(=N)N)C(=O)N[C@H](CCCCN)C(=O)N1CCC[C@@H]1C(=O)N[C@H](CCCNC(=N)N)C(=O)N1CCC[C@@H]1C(=O)N1CCC[C@@H]1C(=O)N[C@H](CCCNC(=N)N)C(=O)N[C@H](CCCNC(=N)N)C(=O)N[C@H](CCCNC(=N)N)C(=O)N[C@H](CCC(N)=O)C(=O)N[C@H](CCCNC(=N)N)C(=O)N[C@H](CCCNC(=N)N)C(=O)N[C@H](CCCCN)C(=O)N[C@H](CCCCN)C(=O)N[C@H](CCCNC(=N)N)C(=O)NCC(=O)O)[C@H](C)O)[C@H](C)O [SEQ ID NO: 11],number of iNOS positive cells,iNOS positive cells,reduced
same,detection of the peptide in ocular tissues,"[1]; EIU eyes, 24 hours after IV injection",not detected
same,"detection of the peptide in infiltrating inflammatory cells (iris, aqueous humor)","[1]; EIU eyes, 24 hours after IV injection, occasional cells",immunopositive
same,subcellular localisation of the peptide,"[1]; all cell types, normal eyes after IVT administration",accumulated within the cytoplasm
same,immunoreactivity of the peptide in ocular tissues,"[1]; normal eyes, 24 hours after systemic (IV) injection, 20 µg/kg",no signal was observed
same,distribution of the peptide in ocular tissues,"[1]; normal rats, 24 hours after IVT administration, 0.2 µg/injection",distributed in almost all ocular tissues
same,distribution of the peptide in ocular tissues and resident cells,"[1]; uveitic eyes, 24 hours after IVT injection",mostly found in ocular tissues like in healthy eyes and in resident cells
same,number of polymorphonuclear cells (PMN),[2]; IV administration (20 µg/kg),60 ± 6
same,number of polymorphonuclear cells (PMN),[2]; IVT injection (SEQ ID NO: 11: 0.2 µg/injection),40 ± 5
